SMILES strings stand for the structures.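 A five-concentration, 48-hour dose response in 96-well plates underlies each endpoint, interpolated linearly between surrounding concentrations. GI50 = concentration required for 50% inhibition of growth. TGI is the concentration that stops growth completely.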

Among the test systems are MALME-3M melanoma; MCF7 breast; MDA-MB-231 breast; OVCAR-5 ovarian; SK-OV-3 ovarian; SNB-19 CNS; T-47D breast; UO-31 renal.
Common to all, as to test: growth of human tumour cells (NCI), 48 h

`C[N+](C)(CCCCCC[N+](C)(C)CCCN1C(=O)c2cc3ccccc3cc2C1=O)CCCN1C(=O)c2cc3ccccc3cc2C1=O`: the GI50 in the experiment with MALME-3M melanoma, in the experiment on MCF7 breast, in the experiment on MDA-MB-231 breast, in the experiment on OVCAR-5 ovarian, in the experiment on SK-OV-3 ovarian and in the experiment with SNB-19 CNS was greater than 37.5 µM in each case. Besides, the GI50 in the experiment on T-47D breast and in the experiment on UO-31 renal was greater than 37.5 µM in each case. Besides, the TGI with MALME-3M melanoma, with MCF7 breast, in the experiment on MDA-MB-231 breast, in the experiment on OVCAR-5 ovarian, with SK-OV-3 ovarian and with SNB-19 CNS was greater than 37.5 µM each time. Besides, the TGI in the experiment on T-47D breast and in the experiment on UO-31 renal was greater than 37.5 µM each time.

For `CC(C)=CCC1=C(OCC(=O)O)C(=O)c2ccccc2C1=O`, the TGI is 35 µM in the experiment on MALME-3M melanoma; 96.3 µM in the experiment on MCF7 breast; greater than 100 µM with MDA-MB-231 breast; greater than 100 µM in the experiment with SK-OV-3 ovarian; 92.7 µM with SNB-19 CNS; greater than 100 µM in the experiment with T-47D breast. In addition, the TGI in the experiment on UO-31 renal is greater than 100 µM.

With `CC1(C)CCCC(C)(C2CCC3(C)C2C(O)CC2C4(C)CCC(O)C(C)(C)C4C(O)CC23C)O1` (stereo not given), the TGI is 50.1 µM in the experiment with MALME-3M melanoma; 29.3 µM in the experiment on MCF7 breast; 34.8 µM in the experiment with MDA-MB-231 breast; 38.4 µM with OVCAR-5 ovarian; 32 µM in the experiment with SK-OV-3 ovarian; 25.5 µM in the experiment on SNB-19 CNS. The TGI with T-47D breast is 28.9 µM; in the experiment on UO-31 renal, 24.1 µM.

In the case of `COc1ccc(-c2nc(Nc3ccc(-c4nc5ccccc5[nH]4)cc3)nc(N3CCOCC3)n2)cc1`, the GI50 in the experiment with MALME-3M melanoma was 2.05 µM; in the experiment on MCF7 breast it was 2.59 µM; in the experiment on MDA-MB-231 breast, 1.63 µM; in the experiment with OVCAR-5 ovarian, 2.7 µM; in the experiment with SK-OV-3 ovarian, 2.37 µM; with SNB-19 CNS it was 3.49 µM. Also, the GI50 in the experiment on UO-31 renal is 2.16 µM. In addition, the TGI in the experiment on MALME-3M melanoma is 3.95 µM; with MCF7 breast, greater than 100 µM; in the experiment with MDA-MB-231 breast it was 4.76 µM; in the experiment with OVCAR-5 ovarian it was 8.9 µM; in the experiment with SK-OV-3 ovarian it was 5.53 µM; with SNB-19 CNS it was greater than 100 µM. In the experiment on UO-31 renal, this compound displayed a TGI of 5.64 µM.

Turning to `O=C(NNc1ccc(F)cc1)C1CCC(CNS(=O)(=O)c2ccc(Cl)c(Cl)c2)CC1` (stereo not given), the GI50 in the experiment on MCF7 breast is 7.73 µM; in the experiment with MDA-MB-231 breast it was 3.17 µM; in the experiment on OVCAR-5 ovarian, 7.7 µM; with SK-OV-3 ovarian it was 28.9 µM; in the experiment on SNB-19 CNS it was greater than 50 µM; with UO-31 renal, 16.8 µM. Also, the TGI was greater than 50 µM with MCF7 breast; 25.4 µM with MDA-MB-231 breast; 25.2 µM in the experiment with OVCAR-5 ovarian; greater than 50 µM in the experiment on SK-OV-3 ovarian; greater than 50 µM in the experiment with SNB-19 CNS; greater than 50 µM in the experiment on UO-31 renal.

Take `CSCC[C@H](NC(=O)[C@H](CC(C)C)NC(=O)[C@@H](Cc1ccccc1)NC(=O)CNC(=O)[C@@H](NC(=O)[C@H](C)NC(=O)[C@H](Cc1c[nH]c2ccccc12)NC(=O)[C@H](CCC(N)=O)NC(=O)[C@H](N)CC(N)=O)C(C)C)C(N)=O`: the TGI with MALME-3M melanoma, with MCF7 breast, in the experiment with MDA-MB-231 breast, in the experiment on OVCAR-5 ovarian, in the experiment on SK-OV-3 ovarian and in the experiment on SNB-19 CNS was greater than 12.5 µM each time. In the experiment on T-47D breast, the TGI was greater than 12.5 µM.

In the case of `CN(C)CCC=C1c2ccccc2C(C)(C)c2ccccc21`, the GI50 with MCF7 breast is 10.2 µM; with MDA-MB-231 breast, 13.8 µM; with OVCAR-5 ovarian, 15.9 µM; in the experiment with SK-OV-3 ovarian it was 15.5 µM; in the experiment on SNB-19 CNS it was 15.2 µM; in the experiment on T-47D breast, 11.5 µM. Further, the GI50 with UO-31 renal was 4.8 µM. The TGI with MCF7 breast was found to be 22.5 µM; with MDA-MB-231 breast it was 28.8 µM; in the experiment with OVCAR-5 ovarian, 31.4 µM; with SK-OV-3 ovarian, 28.8 µM; with SNB-19 CNS it was 28.5 µM; in the experiment on T-47D breast, 27.4 µM. Also, the TGI in the experiment with UO-31 renal is 20.7 µM.

Take `C1COCCOCCOCCOCCOCCO1.[Cl][Sn]([Cl])([c]1ccccc1)[c]1ccccc1`: the GI50 with MALME-3M melanoma is 1.99 µM; in the experiment with OVCAR-5 ovarian, 17.8 µM; with SK-OV-3 ovarian, 16.6 µM; in the experiment with SNB-19 CNS, 6.48 µM; in the experiment with UO-31 renal it was 14.1 µM. The TGI stood at 3.82 µM in the experiment on MALME-3M melanoma; 31.6 µM in the experiment with OVCAR-5 ovarian; 30.2 µM in the experiment with SK-OV-3 ovarian; 14.5 µM in the experiment with SNB-19 CNS; 27.2 µM in the experiment with UO-31 renal.

For `O=c1c2cccc(F)c2sc2c(N3CCNCC3)nc3ccccc3c12`, the GI50 is 1.67 µM in the experiment with MALME-3M melanoma; 1.17 µM in the experiment on MCF7 breast; 1.61 µM with MDA-MB-231 breast; 1.59 µM with OVCAR-5 ovarian; 1.64 µM with SK-OV-3 ovarian; 1.67 µM in the experiment on T-47D breast. The GI50 in the experiment with UO-31 renal is 0.597 µM. The TGI with MALME-3M melanoma was 3.07 µM; in the experiment on MCF7 breast, 2.66 µM; in the experiment with MDA-MB-231 breast it was 3.1 µM; in the experiment with OVCAR-5 ovarian, 3.03 µM; in the experiment with SK-OV-3 ovarian, 3.41 µM; with T-47D breast, 3.59 µM. This compound yielded a TGI with UO-31 renal of 2.04 µM.

On to `O=C1C(=O)c2ccccc2C(O)=C1CCCc1ccc(C2CCCC2)cc1`, for which the GI50 with MALME-3M melanoma is 6.55 µM; with MCF7 breast, 4.21 µM; with MDA-MB-231 breast it was 11.1 µM; with OVCAR-5 ovarian it was 11 µM; in the experiment with SK-OV-3 ovarian, 12.5 µM; with T-47D breast, 7.21 µM. For the same compound, the GI50 in the experiment on UO-31 renal was 3.85 µM. Besides, the TGI came to 38 µM in the experiment with MALME-3M melanoma; 21.1 µM with MCF7 breast; 43.9 µM with MDA-MB-231 breast; 23.6 µM in the experiment with OVCAR-5 ovarian; 56.9 µM in the experiment with SK-OV-3 ovarian; 98 µM with T-47D breast. Also, the TGI with UO-31 renal came to 15.5 µM.

Take `N#Cc1ccsc1NC(=O)COC(=O)c1cccc(S(=O)(=O)N2CCc3ccccc32)c1`: the GI50 was 75.8 µM in the experiment on MALME-3M melanoma; 19.8 µM in the experiment on MCF7 breast; 35.2 µM with OVCAR-5 ovarian; greater than 100 µM in the experiment with SK-OV-3 ovarian; 55.8 µM in the experiment on SNB-19 CNS; 37.5 µM in the experiment with T-47D breast. Further, the GI50 in the experiment on UO-31 renal is 41.2 µM. The TGI in the experiment on MALME-3M melanoma, in the experiment with MCF7 breast, in the experiment on OVCAR-5 ovarian, in the experiment with SK-OV-3 ovarian, with SNB-19 CNS and with T-47D breast was greater than 100 µM each time. In the experiment with UO-31 renal, this compound yielded a TGI greater than 100 µM.

The values above are taken from PubChem BioAssay (NCI).
